We go through seven compounds from patent US20080249077A1, “17.Beta.-Fluoromethoxycarbonyl-Androst-4-En-3-One Compounds With a 17.Alpha.-Carbonate Sustituent” (priority 2005, published 2008).

What all share (type): cell-based
The target in assay [1] is T1, glucocorticoid receptor (Homo sapiens, UniProt P04150).
T1 construct: A549 cells stably transfected with a reporter gene; endogenous in cells; host or cells: A549 cells
T1 sequence (P04150 1-777): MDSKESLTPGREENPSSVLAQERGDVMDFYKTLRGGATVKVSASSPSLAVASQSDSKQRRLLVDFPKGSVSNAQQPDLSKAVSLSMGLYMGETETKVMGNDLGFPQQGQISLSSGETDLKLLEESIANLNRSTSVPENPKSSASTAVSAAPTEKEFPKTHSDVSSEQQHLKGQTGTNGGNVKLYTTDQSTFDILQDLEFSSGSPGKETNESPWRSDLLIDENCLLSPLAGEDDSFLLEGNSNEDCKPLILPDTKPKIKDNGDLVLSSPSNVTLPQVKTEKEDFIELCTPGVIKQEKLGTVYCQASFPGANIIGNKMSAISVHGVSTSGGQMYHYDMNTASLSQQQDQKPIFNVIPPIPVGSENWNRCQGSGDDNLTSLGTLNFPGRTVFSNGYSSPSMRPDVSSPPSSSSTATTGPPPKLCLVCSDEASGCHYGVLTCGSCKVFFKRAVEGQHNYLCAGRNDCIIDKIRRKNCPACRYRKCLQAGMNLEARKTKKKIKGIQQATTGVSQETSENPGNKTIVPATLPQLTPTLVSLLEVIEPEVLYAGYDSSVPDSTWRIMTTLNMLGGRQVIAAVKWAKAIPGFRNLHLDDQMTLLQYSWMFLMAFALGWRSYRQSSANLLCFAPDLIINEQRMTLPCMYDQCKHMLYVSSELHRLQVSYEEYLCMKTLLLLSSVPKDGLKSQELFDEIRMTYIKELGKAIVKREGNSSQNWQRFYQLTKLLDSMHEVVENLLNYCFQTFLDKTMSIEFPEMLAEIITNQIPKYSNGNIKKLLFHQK
Briefly: Assay for transactivation activity of the glucocorticoid agonists (MMTV-LTR renilla luciferase reporter in A549 cells). As to conditions: compound 6 hour at 37° C., read-out: maximal response relative to Dexamethasone (100%) (transactivation). The method, then:
Assay for Transactivation Activity of the Glucocorticoid Agonists
The functional assay based on that described by R. J. H. Austin et al., Eur Resp J. (2002), 20, 1386-1392 measures the ability of compounds to directly transactivate gene expression. A549 cells stably transfected with a reporter gene containing the glucocorticoid responsive region of the mouse mammary tumour virus long terminal repeat (MMTV-LTR) coupled to renilla luciferase were treated with test compounds at appropriate doses for 6 hour at 37° C. The amount of luciferase activity present within the cells is then determined by measuring the light emitted following incubation with a suitable substrate. Dose response curves were constructed from which EC50 values were estimated and from which maximal responses are calculated relative to Dexamethasone (100%).
(In general: A reporter such as luciferase makes a cellular process visible.)

For assay [2], the target named is T1, glucocorticoid receptor. Briefly: Assay for transrepression activity of the glucocorticoid agonists (NF-κB responsive ELAM promoter-sPAP reporter, TNF-stimulated A549 cells). As to conditions: compound 1 hour at 37° C., then TNF 10 ng/ml for 16 hours, read-out: pIC50 (transrepression) (converted). How it is done:
Assay for Transrepression Activity of the Glucocorticoid Agonists
A549 cells stably transfected with a reporter gene containing the NF-κB responsive elements from the ELAM gene promoter coupled to sPAP (secreted alkaline phosphatase) are treated with test compounds at appropriate doses for 1 hour at 37° C. The cells are then stimulated with tumour necrosis factor (TNF, 10 ng/ml) for 16 hours, at which time the amount of alkaline phosphatase produced is measured by a standard colourimetric assay. Dose response curves were constructed from which EC50 values were estimated.

For a further assay, the target named is T2, Progesterone Receptor (Homo sapiens, UniProt P06401).
T2 construct: expressed in transfected cells; host or cells: CV-1 cells transduced with PRb-BacMam
T2 sequence (P06401 1-933): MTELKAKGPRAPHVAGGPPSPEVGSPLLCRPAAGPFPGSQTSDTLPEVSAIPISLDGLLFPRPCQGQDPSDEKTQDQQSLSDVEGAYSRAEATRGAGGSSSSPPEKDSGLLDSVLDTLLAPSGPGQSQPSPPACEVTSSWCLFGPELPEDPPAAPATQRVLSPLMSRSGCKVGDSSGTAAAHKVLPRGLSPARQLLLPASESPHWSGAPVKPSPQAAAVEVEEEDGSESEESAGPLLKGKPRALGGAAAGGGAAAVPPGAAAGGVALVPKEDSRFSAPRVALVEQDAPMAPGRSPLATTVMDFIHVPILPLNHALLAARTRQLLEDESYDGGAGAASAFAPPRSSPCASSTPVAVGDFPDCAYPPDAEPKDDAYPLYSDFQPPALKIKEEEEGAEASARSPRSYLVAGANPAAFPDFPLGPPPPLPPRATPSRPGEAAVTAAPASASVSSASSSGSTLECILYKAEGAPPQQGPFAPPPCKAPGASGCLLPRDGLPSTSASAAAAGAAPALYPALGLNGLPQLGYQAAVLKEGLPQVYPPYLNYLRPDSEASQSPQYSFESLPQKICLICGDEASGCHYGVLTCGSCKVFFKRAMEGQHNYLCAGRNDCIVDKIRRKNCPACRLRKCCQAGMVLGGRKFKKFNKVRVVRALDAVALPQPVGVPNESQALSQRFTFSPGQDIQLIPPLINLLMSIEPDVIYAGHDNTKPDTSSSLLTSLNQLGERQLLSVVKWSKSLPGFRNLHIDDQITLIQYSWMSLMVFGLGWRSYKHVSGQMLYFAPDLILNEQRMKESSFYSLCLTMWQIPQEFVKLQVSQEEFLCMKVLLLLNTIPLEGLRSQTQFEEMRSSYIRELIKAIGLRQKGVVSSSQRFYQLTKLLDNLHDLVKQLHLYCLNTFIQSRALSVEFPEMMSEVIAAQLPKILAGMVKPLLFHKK
The experiment in a line: Assay for progesterone receptor activity (CV-1 cells transduced with PRb-BacMam and MMTV-BacMam, Steady Glo). Conditions: 24 h, read-out: pEC50 (progesterone receptor) (converted). How it is done:
Assay for Progesterone Receptor Activity
Cells were diluted in DMEM containing 10% Hyclone, 2 mM […] and 1% Pen/Strep at 140 cells/μl and transduced with 10% PRb-BacMam and 10% MMTV-BacMam. […] of suspension cells were dispensed to each well of white Nunc 384-well plates, containing compounds at the required concentration. After 24 h 10 μl of Steady Glo were added to each well of the plates. Plates were incubated in the dark for 10 min before reading them on a Viewlux reader. Dose response curves were constructed from which pEC50 values were estimated.

The structures appear in SMILES notation.

Consider `CCC(OC(=O)O[C@]1(C(=O)OCF)[C@H](C)C[C@H]2[C@@H]3C[C@H](F)C4=CC(=O)C=C[C@]4(C)[C@@]3(F)[C@@H](O)C[C@@]21C)C(C)C` (stereo partly drawn) [Example 8, Fluoromethyl(6α,11β,16α,17α)-17-({[(1-ethyl-2-methylpropyl)oxy]carbonyl}oxy)-6,9-difluoro-11-hydroxy-16-methyl-3-oxoandrosta-1,4-diene-17-carboxylate], for which the Emax on glucocorticoid receptor [1] was under 25%. Further, the IC50 at glucocorticoid receptor [2] is under 0.1 nM. Also, on Progesterone Receptor, the EC50 is over 10 nM.

Take `CCC(C)(C)OC(=O)O[C@]1(C(=O)OCF)[C@H](C)C[C@H]2[C@@H]3C[C@H](F)C4=CC(=O)C=C[C@]4(C)[C@@]3(F)[C@@H](O)C[C@@]21C` [Example 2, Fluoromethyl(6α,11β,16α,17α)-17-({[(1,1-dimethylpropyl)oxy]carbonyl}oxy)-6,9-difluoro-11-hydroxy-16-methyl-3-oxoandrosta-1,4-diene-17-carboxylate]: at glucocorticoid receptor [2], the IC50 is under 0.1 nM. Further, the EC50 at Progesterone Receptor was over 10 nM.

With `C[C@@H]1[C@H]2C[C@@H](C[C@H]1OC(=O)O[C@]1(C(=O)OCF)[C@H](C)C[C@H]3[C@@H]4C[C@H](F)C5=CC(=O)C=C[C@]5(C)[C@@]4(F)[C@@H](O)C[C@@]31C)C2(C)C` [Example 34, Fluoromethyl(6α,11β,16α,17α)-6,9-difluoro-11-hydroxy-16-methyl-3-oxo-17-[({[(1R,2R,3R,5S)-2,6,6-trimethylbicyclo[3.1.1]hept-3-yl]oxy}carbonyl)oxy]androsta-1,4-diene-17-carboxylate], the Emax at glucocorticoid receptor [1] was under 25%. Besides, the EC50 on Progesterone Receptor was over 10 nM.

`C[C@@H]1C[C@H]2[C@@H]3C[C@H](F)C4=CC(=O)C=C[C@]4(C)[C@@]3(F)[C@@H](O)C[C@]2(C)[C@@]1(OC(=O)OC1CCCCCC1)C(=O)OCF` [Example 14, Fluoromethyl(6α,11β,16α,17α)-17-{[(cycloheptyloxy)carbonyl]oxy}-6,9-difluoro-11-hydroxy-16-methyl-3-oxoandrosta-1,4-diene-17-carboxylate]: the Emax at glucocorticoid receptor [1] is under 25%. The EC50 on Progesterone Receptor was over 10 nM.

On to `CC(C)[C@H]1CC[C@H](C)C[C@@H]1OC(=O)O[C@]1(C(=O)OCF)[C@H](C)C[C@H]2[C@@H]3C[C@H](F)C4=CC(=O)C=C[C@]4(C)[C@@]3(F)[C@@H](O)C[C@@]21C` [Example 32, Fluoromethyl(6α,11β,16α,17α)-6,9-difluoro-11-hydroxy-16-methyl-17-[({[(1 S,2R,5S)-5-methyl-2-(1-methylethyl)cyclohexyl]oxy}carbonyl)oxy]-3-oxoandrosta-1,4-diene-17-carboxylate], for which, on glucocorticoid receptor [1], the Emax was under 25%. In addition, at Progesterone Receptor, the EC50 was over 10 nM.

`C[C@@H]1C[C@H]2[C@@H]3C[C@H](F)C4=CC(=O)C=C[C@]4(C)[C@@]3(F)[C@@H](O)C[C@]2(C)[C@@]1(OC(=O)O[C@@H]1[C@@H]2CC[C@@H](C2)C1(C)C)C(=O)OCF` [Example 30, Fluoromethyl(6α,11β,16α,17α)-17-[({[(1R,2R,4S)-3,3-dimethylbicyclo[2.2.1]hept-2-yl]oxy}carbonyl)oxy]-6,9-difluoro-11-hydroxy-16-methyl-3-oxoandrosta-1,4-diene-17-carboxylate]: the Emax at glucocorticoid receptor [1] is under 25%. In addition, at glucocorticoid receptor [2], the IC50 is under 0.1 nM. Further, at Progesterone Receptor, the EC50 was over 10 nM.

On to `CCC(OC(=O)O[C@]1(C(=O)OCF)[C@H](C)C[C@H]2[C@@H]3C[C@H](F)C4=CC(=O)C=C[C@]4(C)[C@@]3(F)[C@@H](O)C[C@@]21C)C(C)(C)C` (stereo partly drawn) [Example 38, Fluoromethyl(6α,11β,16α,17α)-17-({[(1-ethyl-2,2-dimethylpropyl)oxy]carbonyl}oxy)-6,9-difluoro-11-hydroxy-16-methyl-3-oxoandrosta-1,4-diene-17-carboxylate], for which, at glucocorticoid receptor [1], the Emax is under 25%. Also, the EC50 at Progesterone Receptor is over 10 nM.
